{"source": "patent US6929912B2", "about": "(priority 1998, dated 2005)", "key": {"[1]": {"tested_on": "metastatic or inflammatory breast cancer", "type": "in vivo, human"}, "[2]": {"tested_on": "breast cancer", "details": "cited from earlier work"}}, "note": "Where “and” joins values, the source holds several entries; their conditions need not be identical. Identical values can stand only once. Like-named read-outs stand apart in the source and are kept apart here.", "data": [{"smiles": "O=NN(CCCl)C(=O)NCCCl", "note": "[BCNU, 1,3-bis-(chloroethyl)-1-nitrosourea]", "values": [{"measurement": "Survival >3 years: Yes", "setting": "[1]; human, in vivo", "value": "55.6% and 29.7%"}]}, {"smiles": "O=P1(N(CCCl)CCCl)NCCCO1", "note": "(stereo not drawn) [CY, cyclophosphamide]", "values": [{"measurement": "chance of survival relative to patients homozygous for the A allele", "setting": "[1]; CYP3A4 B allele patients", "value": "⅓"}, {"measurement": "Survival >3 years: Yes", "setting": "[1]; CYP3A4 genotype AA (wildtype)", "value": 46.6, "unit": "%"}, {"measurement": "Survival >3 years: Yes", "setting": "[1]; CYP3A4 genotype AB or BB", "value": 15.4, "unit": "%"}, {"measurement": "chance of survival relative to patients homozygous for the A allele", "setting": "[1]; CYP3A5 B allele patients", "value": "less than ⅓"}, {"measurement": "Survival >3 years: Yes", "setting": "[1]; CYP3A5 genotype AA (wildtype)", "value": 48.2, "unit": "%"}, {"measurement": "Survival >3 years: Yes", "setting": "[1]; CYP3A5 genotype AB or BB", "value": 14.3, "unit": "%"}, {"measurement": "blood concentrations of CY on day 3", "setting": "patients carrying the CYP3A4 promoter -392 variant vs without, p=0.0247", "value": "significantly higher"}, {"measurement": "blood concentrations of CY on day 2", "setting": "patients carrying the CYP3A4 promoter -392 variant vs without, p=0.0260", "value": "significantly higher"}, {"measurement": "Apparent induction of CY metabolism (Day 3 exposure/Day 1 exposure)", "setting": "patients carrying the CYP3A4 variant SNP vs without, p=0.0260", "value": "higher"}, {"measurement": "blood concentrations of CY on day 2", "setting": "patients carrying the CYP3A5 promoter -147 variant vs without, p=0.0281", "value": "significantly higher"}, {"measurement": "concentrations of CY", "setting": "patients with CYP3A4 B allele vs homozygous for the A allele, day not given", "value": "higher"}, {"measurement": "Blood concentrations of CY", "setting": "patients with CYP3A5 B alleles vs homozygous for the A allele, day not given", "value": "significantly higher"}, {"measurement": "objective responses, patients", "setting": "[2]; cyclophosphamide used alone", "value": "about 35%"}, {"measurement": "objective responses, patients", "setting": "[2]; cyclophosphamide used in combination regimens", "value": "up to 90%"}]}]}
